Laboratory results: ChEMBL document CHEMBL1201862, “PubChem BioAssay data set” (2004)
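Assay format: 96-well plates, 48-hour exposure. GI50 = concentration required for 50% inhibition of growth.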 Activity calls are given as the source filed them. No stated cut-off is given here; in the data, active = GI50 up to about 1.1 µM and inactive = higher.

Key:
Test in all cases: inhibition of tumour cell growth, NCI panel, 48 h
RXF 393 = test system: RXF 393
HT-29 = test system: HT-29
HCC 2998 = test system: HCC 2998
HCT-116 = test system: HCT-116
SK-MEL-2 = test system: SK-MEL-2
UACC-257 = test system: UACC-257
COLO 205 = test system: COLO 205
HCT-15 = test system: HCT-15
ACHN = test system: ACHN
NCI-H23 = test system: NCI-H23
MDA-N = test system: MDA-N
Hs-578T = test system: Hs-578T
PC-3 = test system: PC-3
SR = test system: SR
HOP-92 = test system: HOP-92
OVCAR-4 = test system: OVCAR-4
MDA-MB-435 = test system: MDA-MB-435
NCI-H522 = test system: NCI-H522
SK-MEL-5 = test system: SK-MEL-5

SMILES	GI50 (RXF 393)	GI50 (HT-29)	GI50 (HCC 2998)	GI50 (HCT-116)	GI50 (SK-MEL-2)	GI50 (UACC-257)	GI50 (COLO 205)	GI50 (HCT-15) [µM]	GI50 (ACHN)	GI50 (NCI-H23)	GI50 (MDA-N)	GI50 (Hs-578T)	GI50 (PC-3)	GI50 (SR)	GI50 (HOP-92)	GI50 (OVCAR-4)	GI50 (MDA-MB-435)	GI50 (NCI-H522)	GI50 (SK-MEL-5)
COc1ccc(C2=C(N)c3ncccc3C2=O)cc1	24.7 µM (inactive)	> 100 µM (inactive)	> 100 µM (inactive)	> 100 µM (inactive)	> 100 µM (inactive)	> 10 µM (inactive)	72.6 µM (inactive)	> 100	> 10 µM (inactive)	> 100 µM (inactive)	> 100 µM (inactive)	18.9 µM (inactive)	> 100 µM (inactive)	69.7 µM (inactive)	> 10 µM (inactive)	> 100 µM (inactive)	> 100 µM (inactive)		
c1ccc2c(Nc3ncco3)cccc2c1		> 10 µM (inactive)	> 10 µM (inactive)	> 10 µM (inactive)		> 10 µM (inactive)	> 10 µM (inactive)	> 10	> 10 µM (inactive)	> 10 µM (inactive)	> 10 µM (inactive)	> 10 µM (inactive)	> 10 µM (inactive)	0.001 µM (active)	> 10 µM (inactive)	> 10 µM (inactive)	> 10 µM (inactive)	> 10 µM (inactive)	> 10 µM (inactive)
c1ccc2c(c1)c1c(n2CCOCCN2CCCCC2)CCCC1		11.6 µM (inactive)	11.5 µM (inactive)	12.5 µM (inactive)	8.77 µM (inactive)	> 10 µM (inactive)	11.1 µM (inactive)	14.1	14.2 µM (inactive)	15.2 µM (inactive)	14.8 µM (inactive)	14.5 µM (inactive)	9.04 µM (inactive)	13.8 µM (inactive)	8.2 µM (inactive)	11.1 µM (inactive)	12.8 µM (inactive)		8.43 µM (inactive)
Cc1c2ccccc2c(C)n2c1nc1ccccc12	9.44 µM (inactive)	5.11 µM (inactive)	5.43 µM (inactive)	4.65 µM (inactive)		14.2 µM (inactive)		4.54	4.06 µM (inactive)	6.93 µM (inactive)	10.6 µM (inactive)	20.2 µM (inactive)	6.98 µM (inactive)	6.5 µM (inactive)	12.2 µM (inactive)		6.1 µM (inactive)		4.44 µM (inactive)
N=c1oc2ccc(Cl)cc2cc1C(N)=O	29.6 µM (inactive)	38.5 µM (inactive)	25.7 µM (inactive)	21.2 µM (inactive)	13.3 µM (inactive)	45.4 µM (inactive)	36.6 µM (inactive)	29.4	24.4 µM (inactive)	22.4 µM (inactive)	25.1 µM (inactive)	18.5 µM (inactive)	17.2 µM (inactive)	65.3 µM (inactive)	36 µM (inactive)	37.1 µM (inactive)	31.7 µM (inactive)		20.5 µM (inactive)
CCOC(=O)Nc1ccc(S(=O)(=O)Nc2ccc(Br)cc2)cc1	22 µM (inactive)	33.2 µM (inactive)		39.7 µM (inactive)	47.1 µM (inactive)	61.4 µM (inactive)	14.6 µM (inactive)	61.5	30.1 µM (inactive)	31 µM (inactive)	37 µM (inactive)	30.6 µM (inactive)	41 µM (inactive)	18.2 µM (inactive)	43.7 µM (inactive)	13.6 µM (inactive)	43.5 µM (inactive)	29 µM (inactive)	18.5 µM (inactive)
O=c1[nH]c(=S)[nH]c(-c2ccccc2)c1Cc1c(O)ccc2ccccc12 [CAMBINOL]	29.8 µM (inactive)	39.4 µM (inactive)		24.7 µM (inactive)	20.4 µM (inactive)	27.2 µM (inactive)	21.5 µM (inactive)	34.4	34 µM (inactive)	29.6 µM (inactive)	27.9 µM (inactive)	43.9 µM (inactive)	37.2 µM (inactive)	34.8 µM (inactive)	26.1 µM (inactive)	39.7 µM (inactive)	31 µM (inactive)	8.89 µM (inactive)	21 µM (inactive)
